The text below walks through data of patent US7645779B2, “Linked biaryl compounds” (Amgen Inc., priority 2001, dated 2010).

Bounds are passed on as bounds.

This test concerns High Cholesterol Fed Rats. The test can be described thus: HDL Cholesterol Assay in High Cholesterol Fed Rats. The class given is in vivo, Male Sprague-Dawley rats. As to conditions: Rattus norvegicus, 168 h, oral once a day over the final 7 days of a 14-day high cholesterol diet, HDL increase relative to the vehicle, read-out: Serum HDL cholesterol levels (% of increase) at 30 mg/kg. As for the experimental part:
HDL Cholesterol Assay in High Cholesterol Fed Rats
Male Sprague-Dawley rats (BW: 100-120 g) were fed a high cholesterol diet (1.25% cholesterol, 0.5% cholic acid and 10% coconut oil) for 14 days. The animals were orally dosed with test compounds suspended to 0.5% methylcellulose solution once a day over the final 7 days. Typical doses of test compounds were 1-30 mg/kg/day.
After 7 days of treatment, serum HDL cholesterol concentration was determined from blood obtained by tail bleeds. HDL cholesterol determination was performed on a Hitachi 7170 automatic analyzer.
Serum HDL cholesterol level (% of increase) refers to the rate of HDL increase relative to the vehicle and was calculated as follows: […]
Turning to `Cc1cc(S(=O)(=O)c2ccc(OCc3ccc(C(F)(F)F)cc3)cc2C)ccc1OCC(=O)O` [Compound 5, 4-[[2-methyl-4-(4-trifluoromethyl-benzyloxy)phenyl]sulfonyl]-2-methylphenoxy-acetic acid], the change in vivo at 30 mg/kg was no more than 100%.
Consider `Cc1cc(Sc2ccc(COc3ccc(C(F)(F)F)cc3)cc2)ccc1OCC(=O)O` [Compound 7, 4-[[4-[(4-trifluoromethylphenoxy)methyl]phenyl]sulfanyl]-2-methylphenoxy-acetic acid], for which the change in vivo at 30 mg/kg was no more than 100%.
Regarding `Cc1cc(Sc2ccc(OCc3ccc(C(F)(F)F)cc3)cc2)ccc1OCC(=O)O` [Compound 8], the change in vivo at 30 mg/kg was greater than 100%.
As to `Cc1cc(Sc2ccc(OCC(=O)O)c3ccccc23)ccc1OCc1ccc(C(F)(F)F)cc1` [Compound 9], the change in vivo at 30 mg/kg is no more than 100%.
`Cc1cc(Sc2ccc(CNc3ccc(C(F)(F)F)cc3)cc2C)c(C)cc1OCC(=O)O` [Compound 21, 2,5-dimethyl-4-[[2-methyl-4-[(4-trifluoromethyl-phenylamino)methyl]phenyl]sulfanyl]phenoxy-acetic acid]: the change in vivo at 30 mg/kg was greater than 100%.
The value for `Cc1cc(Sc2ccc(OCc3ccc(C(F)(F)F)cc3)c(C)c2)ccc1OCC(=O)O` [Compound 1, {2-methyl-4-[3-methyl-4-(4-trifluoromethyl-benzyloxy)-phenylsulfanyl]-phenoxy}-acetic acid] was greater than 100%; that for `Cc1cc(COc2ccc(C(F)(F)F)cc2)ccc1Sc1ccc(OCC(=O)O)cc1C` [Compound 11] was greater than 100%.
Turning to `CCCc1cc(Sc2ccc(OCc3ccc(C(F)(F)F)cc3)c(C)c2)ccc1OCC(=O)O` [Compound 4, 4-[[3-methyl-4-(4-trifluoromethyl-benzyloxy)phenyl]sulfanyl]-2-propylphenoxy-acetic acid], the change in vivo at 30 mg/kg is greater than 100%.
The value for `O=C(O)COc1ccc(Sc2ccc(CNc3ccc(C(F)(F)F)cc3)cc2Cl)c2c1CCCC2` [Compound 22, (4-{2-chloro-4-[(4-trifluoromethyl-phenylamino)-methyl]-phenylsulfanyl}-5,6,7,8-tetrahydro-naphthalen-1-yloxy)-acetic acid] was no more than 100%; that for `Cc1cc(Sc2ccc(COc3ccc(C(F)(F)F)cc3)cc2Cl)ccc1OCC(=O)O` [Compound 10, 4-[[2-chloro-4-[(4-trifluoromethylphenoxy)methyl]phenyl]sulfanyl]-2-methylphenoxy-acetic acid] was no more than 100%.
